Experimental data: the supplement of paper PMC10307832

Legend:
Experiment in all cases: relative viability (nuclei count vs DMSO), 5 days (fraction); higher = more cells survive
Neratinib + AZD7762 = compound: CCOc1cc2ncc(C#N)c(Nc3ccc(OCc4ccccn4)c(Cl)c3)c2cc1NC(=O)/C=C/CN(C)C [Neratinib] + NC(=O)Nc1cc(-c2cccc(F)c2)sc1C(=O)N[C@H]1CCCNC1 [AZD7762] (partner 0.2 µM)
Outline: (§1)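 Lung cancer cell lines, seeded in 1536-well plates, were treated the following day by pin tool with a single drug or with five library-drug doses (not always all listed) in √10 steps on top of a fixed anchor-drug dose. Cells were fixed and nuclei stained in one step after 5 days, and nuclei were counted. Relative viability is the nuclei count for treated wells divided by that for vehicle wells, reported as medians of duplicate plates.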

Neratinib + Crizotinib = compound: CCOc1cc2ncc(C#N)c(Nc3ccc(OCc4ccccn4)c(Cl)c3)c2cc1NC(=O)/C=C/CN(C)C [Neratinib] + C[C@@H](Oc1cc(-c2cnn(C3CCNCC3)c2)cnc1N)c1c(Cl)ccc(F)c1Cl [Crizotinib] (partner 1 µM)
Outline: as §1

Neratinib + Palbociclib = compound: CCOc1cc2ncc(C#N)c(Nc3ccc(OCc4ccccn4)c(Cl)c3)c2cc1NC(=O)/C=C/CN(C)C [Neratinib] + CC(=O)c1c(C)c2cnc(Nc3ccc(N4CCNCC4)cn3)nc2n(C2CCCC2)c1=O [Palbociclib] (partner 0.5 µM)
Outline: as §1

Neratinib + Vorinostat = compound: CCOc1cc2ncc(C#N)c(Nc3ccc(OCc4ccccn4)c(Cl)c3)c2cc1NC(=O)/C=C/CN(C)C [Neratinib] + O=C(CCCCCCC(=O)Nc1ccccc1)NO [Vorinostat] (partner 1 µM)
Outline: as §1

| Cell Line | relative viability (Neratinib + AZD7762; first compound 0.01 µM) | relative viability (Neratinib + AZD7762; first compound 0.03162 µM) | relative viability (Neratinib + AZD7762; first compound 0.1 µM) | relative viability (Neratinib + AZD7762; first compound 0.3162 µM) | relative viability (Neratinib + AZD7762; first compound 1 µM) | relative viability (Neratinib + Crizotinib; first compound 0.01 µM) | relative viability (Neratinib + Crizotinib; first compound 0.03162 µM) | relative viability (Neratinib + Crizotinib; first compound 0.3162 µM) | relative viability (Neratinib + Crizotinib; first compound 1 µM) | relative viability (Neratinib + Palbociclib; first compound 0.01 µM) | relative viability (Neratinib + Palbociclib; first compound 0.03162 µM) | relative viability (Neratinib + Palbociclib; first compound 0.1 µM) | relative viability (Neratinib + Palbociclib; first compound 0.3162 µM) | relative viability (Neratinib + Palbociclib; first compound 1 µM) | relative viability (Neratinib + Vorinostat; first compound 0.01 µM) | relative viability (Neratinib + Vorinostat; first compound 0.03162 µM) | relative viability (Neratinib + Vorinostat; first compound 0.1 µM) | relative viability (Neratinib + Vorinostat; first compound 0.3162 µM) | relative viability (Neratinib + Vorinostat; first compound 1 µM) | relative viability (Neratinib + Crizotinib; first compound 0.1 µM) |
| --- | --- | --- | --- | --- | --- | --- | --- | --- | --- | --- | --- | --- | --- | --- | --- | --- | --- | --- | --- | --- |
| NCI-H460 | 0.654 | 0.718 | 0.639 | 0.54 | 0.265 | 1.2 | 0.743 | 0.641 | 0.355 | 0.19 | 0.215 | 0.171 | 0.166 | 0.0933 | 0.779 | 0.984 | 0.429 | 0.716 | 0.518 | – |
| NCI-H647 | 0.532 | 0.568 | 0.466 | 0.457 | 0.277 | 1.21 | 0.978 | 0.835 | 0.427 | 0.446 | 0.545 | 0.393 | 0.344 | 0.188 | 0.634 | 0.595 | 0.488 | 0.401 | 0.0941 | 0.852 |
| NCI-H650 | 1.02 | 1.09 | – | 1 | 1.3 | 0.866 | 0.699 | – | 0.421 | 0.372 | 0.306 | 0.293 | 0.294 | 0.371 | 0.406 | 0.399 | 0.451 | 0.403 | 0.367 | 0.78 |
| NCI-H727 | 0.574 | 0.568 | – | 0.497 | 0.374 | 0.844 | 1.02 | 0.597 | 0.423 | 0.616 | 0.69 | – | 0.639 | 0.538 | 1.05 | 1.1 | – | 1.11 | 0.899 | – |
| NCI-H838 | 0.944 | 1.08 | 0.968 | – | 0.78 | 0.995 | 0.812 | 0.67 | 0.476 | 0.223 | 0.23 | 0.216 | 0.176 | 0.176 | – | 0.794 | 0.705 | 0.735 | 0.619 | 0.833 |
| NCI-H1355 | 0.904 | 0.754 | 0.642 | 0.706 | 0.538 | 1.12 | 1.11 | 0.846 | 0.31 | 0.38 | 0.41 | 0.348 | 0.302 | 0.274 | 0.724 | 0.649 | 0.591 | 0.602 | 0.447 | 0.949 |
| NCI-H1437 | 1.18 | 1.12 | 1.05 | 1.08 | 0.896 | 1.04 | 0.853 | 0.789 | 0.822 | 0.322 | 0.329 | 0.293 | 0.268 | 0.341 | 0.916 | 0.906 | 0.799 | 0.843 | 0.85 | 0.897 |
| NCI-H1651 | 0.503 | 0.521 | 0.416 | 0.328 | 0.246 | 0.927 | 0.944 | 0.846 | 0.564 | 0.542 | 0.558 | 0.499 | 0.45 | 0.467 | 0.605 | 0.582 | 0.505 | 0.508 | 0.513 | 0.86 |
| NCI-H1666 | 0.929 | 0.946 | 0.783 | 0.653 | 0.611 | 1.29 | 1.13 | 0.595 | 0.566 | 0.597 | 0.711 | 0.579 | 0.625 | 0.774 | 1.14 | 1.08 | 0.901 | 0.879 | 0.87 | 0.579 |
| NCI-H1734 | 0.584 | 0.555 | 0.457 | 0.505 | 0.36 | 0.838 | 0.722 | 0.646 | 0.446 | 0.409 | 0.395 | 0.241 | 0.328 | 0.28 | 0.997 | 0.766 | 0.743 | 0.752 | 0.6 | 0.535 |
| NCI-H1755 | 0.492 | 0.53 | 0.356 | 0.65 | 0.407 | 0.873 | 0.919 | 0.912 | 0.476 | 0.457 | 0.463 | 0.33 | 0.456 | 0.432 | 0.828 | 0.695 | 0.658 | 0.916 | 0.794 | 0.752 |
| NCI-H1915 | 0.791 | 0.716 | 0.638 | 0.685 | 0.653 | 0.973 | 0.931 | 0.811 | 0.725 | 0.538 | 0.537 | 0.504 | 0.528 | 0.414 | 0.6 | 0.553 | 0.507 | 0.439 | 0.545 | 0.864 |
| NCI-H1944 | 0.584 | 0.621 | 0.4 | 0.505 | 0.313 | 1.31 | 0.991 | 0.762 | 0.348 | 0.365 | 0.32 | 0.264 | 0.241 | 0.247 | 0.657 | 0.544 | 0.474 | 0.501 | 0.456 | 0.99 |
| NCI-H1975 | 0.855 | 0.847 | 0.619 | 0.362 | 0.303 | 1.14 | 1.05 | 0.442 | 0.193 | 0.658 | 0.739 | 0.522 | 0.337 | 0.176 | 0.764 | 0.822 | 0.723 | 0.354 | 0.264 | 0.752 |
| NCI-H1993 | 0.762 | 0.745 | 0.624 | 0.465 | 0.581 | 0.859 | 0.901 | 0.771 | 0.677 | 0.768 | 0.578 | 0.522 | 0.466 | 0.568 | 1.07 | 0.795 | 0.423 | 0.676 | 0.574 | 0.586 |
| NCI-H2085 | 0.924 | 1.04 | 0.933 | 0.746 | – | 0.992 | 0.928 | 0.664 | 0.483 | 0.468 | 0.456 | 0.467 | 0.419 | 0.382 | 0.825 | – | 0.687 | 0.623 | 0.696 | 0.823 |
